Assay results reported in the Deep4Chem optical property database.
Values joined by “and” are separate entries in the source; they are usually repeats but may differ in a detail not shown here. Identical values can stand only once.

Test: solvent given as SMILES

Structure (SMILES): CCCCCCCCCCn1nnc(-c2ccc(C#Cc3ccc(C#Cc4ccc(-c5nnn(CCCCCCCCCC)n5)cc4)c4nc5c6ccccc6c6ccccc6c5nc34)cc2)n1
- emission maximum (in C1CCOC1): 495 nm
- emission maximum (in Cc1ccccc1): 488 nm
- emission maximum (in ClCCl): 502 nm

Structure (SMILES): COc1cc2c(cc1-c1ccc(N(c3ccccc3)c3ccccc3)cc1)Cc1c3c(c4c(c1-2)-c1cc(OC)c(-c2ccc(N(c5ccccc5)c5ccccc5)cc2)cc1C4)C(=O)N(CCC(C)C)C3=O
- emission maximum (in C1CCOC1): 563 nm

Structure (SMILES): CCCCCCCCC1(CCCCCCCC)c2cc(C=O)ccc2-c2ccc(/C=C/c3ccc(N(c4ccccc4)c4ccccc4)cc3)cc21
- emission maximum (in C1CCOC1): 451 nm
- emission maximum (in C1COCCO1): 450 nm
- emission maximum (in CC#N): 486 nm
- emission maximum (in CC(C)=O): 481 nm
- emission maximum (in CCCCCC): 442 nm
- emission maximum (in CCOC(C)=O): 456 nm
- emission maximum (in CN(C)C=O): 490 nm
- emission maximum (in CS(C)=O): 485 nm
- emission maximum (in Cc1ccccc1): 451 nm
- emission maximum (in ClC(Cl)Cl): 459 nm
- emission maximum (in ClCCl): 469 nm

Structure (SMILES): CC1=CC(C)=[N+]2C1=C(c1ccc(-c3ccc(OS(=O)(=O)c4ccc([N+](=O)[O-])cc4[N+](=O)[O-])cc3)s1)c1c(C)cc(C)n1[B-]2(F)F
- emission maximum (in CO): 523 nm
- emission maximum (in Cc1ccccc1): 530 nm
- emission maximum (in ClCCl): 528 nm

Structure (SMILES): c1cc2ccc3[se]c4ccc5cccc6c(c1)c2c3c4c56
- emission maximum (in ClC(Cl)Cl): 424 nm

Structure (SMILES): CC1(C)C(/C=C/C=C/C=C/C=C2/N(CCC(=O)O)c3ccc4ccccc4c3C2(C)C)=[N+](CCC(=O)O)c2ccc3ccccc3c21
- emission maximum (in CO): 817 nm

Structure (SMILES): CC(C)(C)c1ccc2c(c1)c1cc(C(C)(C)C)ccc1n2-c1ccc(N(c2ccc(-c3ccc4c(c3)C(C)(C)c3cc(-c5ccc(N(c6ccc(-n7c8ccc(C(C)(C)C)cc8c8cc(C(C)(C)C)ccc87)cc6)c6ccc(-n7c8ccc(C(C)(C)C)cc8c8cc(C(C)(C)C)ccc87)cc6)cc5)ccc3-4)cc2)c2ccc(-n3c4ccc(C(C)(C)C)cc4c4cc(C(C)(C)C)ccc43)cc2)cc1
- emission maximum (in ClCCl): 443 nm

Structure (SMILES): c1ccc2[nH]ccc2c1
- emission maximum (in O): 360 nm and 345 nm and 340 nm

Structure (SMILES): F[Si-](F)(c1ccccc1)(c1ccccc1)c1c2ccccc2cc2ccccc12
- emission maximum (in C1CCOC1): 399 nm

Structure (SMILES): CC1=[N+]2C(=C(Oc3cc(C)c4c(c3)CC[C@@](C)(CCC[C@H](C)CCC[C@H](C)CCCC(C)C)O4)c3ccc(C)n3[B-]2(F)F)C=C1c1cc2n(c1)[B-](F)(F)[N+]1=CC=CC1=C2c1c(C)cc(C)cc1C
- emission maximum (in C1CCCCC1): 632 nm
- emission maximum (in CCOC(C)=O): 662 nm

Structure (SMILES): Fc1c(-n2c3ccccc3c3ccccc32)c(-c2nnc(-c3ccccc3)o2)c(-n2c3ccccc3c3ccccc32)c(-n2c3ccccc3c3ccccc32)c1-n1c2ccccc2c2ccccc21
- emission maximum (in Cc1ccccc1): 483 nm

Structure (SMILES): CCCCc1ccc(-n2c3c(c4c2c2c(n4-c4ccc(CCCC)cc4)-c4cc(F)ccc4NB2c2ccccc2)B(c2ccccc2)Nc2ccc(F)cc2-3)cc1
- emission maximum (in Cc1ccccc1): 406 nm

Structure (SMILES): CCC1=C(C)C(=O)n2c1cc1[nH]c(C(=O)OC(C)(C)C)c(C)c1c2=O
- emission maximum (in C1CCCCC1): 443 nm
- emission maximum (in CO): 505 nm
- emission maximum (in CS(C)=O): 483 nm
- emission maximum (in ClC(Cl)Cl): 453 nm
- emission maximum (in c1ccccc1): 443 nm

Structure (SMILES): C1=Cc2nc1c(-c1cccs1)c1ccc([nH]1)c(-c1cccs1)c1nc(c(-c3cccs3)c3ccc([nH]3)c2-c2cccs2)C=C1
- emission maximum (in CN(C)C=O): 665 nm
- emission maximum (in ClCCl): 670 nm

Structure (SMILES): COc1ccc(-c2c3ccccc3c(-c3ccc(OC)cc3)c3ccccc23)cc1
- emission maximum (in ClCCl): 427 nm

Structure (SMILES): F[B-]1(F)Oc2ccccc2-c2c3c(c4c([n+]21)CCc1ccccc1-4)CCc1ccccc1-3
- emission maximum (in ClCCl): 442 nm

Structure (SMILES): CC1=c2c3c4cccc5cccc(c=3c(C)[n+]2[B-](F)(F)n2c(C)c3cc6c(-c7ccccc7)c7c(c(-c8ccccc8)c6cc3c21)-c1cccc2cccc-7c12)c54
- emission maximum (in ClCCl): 695 nm

Structure (SMILES): Cc1cc(N2c3ccccc3C(C)(C)c3ccccc32)ccc1-c1cc(-c2ccc(N3c4ccccc4C(C)(C)c4ccccc43)cc2C)ncn1
- emission maximum (in Cc1ccccc1): 477 nm
- emission maximum (in O=P(c1ccccc1)(c1ccccc1)c1ccccc1Oc1ccccc1P(=O)(c1ccccc1)c1ccccc1): 477 nm

Structure (SMILES): Cc1cc(C)c(B(c2cc(-c3ccc(C(C)(C)C)cc3)sc2-c2sc(-c3ccc(C(C)(C)C)cc3)cc2P(=O)(c2ccccc2)c2ccccc2)c2c(C)cc(C)cc2C)c(C)c1
- emission maximum (in CO): 572 nm

Structure (SMILES): O=Cc1ccc(-c2ccc3c(c2)C(=O)c2cc(-c4ccc(C=O)cc4)ccc2-3)cc1
- emission maximum (in C1CCOC1): 371 nm

Structure (SMILES): CC1(C)c2ccccc2N(c2ccc(C(=O)c3cc(C(=O)c4ccc(N5c6ccccc6C(C)(C)c6ccccc65)cc4)cc(C(=O)c4ccc(N5c6ccccc6C(C)(C)c6ccccc65)cc4)c3)cc2)c2ccccc21
- emission maximum (in Cc1ccccc1): 530 nm
- emission maximum (in c1ccc2c(c1)c1ccccc1n2-c1ccc(-c2ccc(-n3c4ccccc4c4ccccc43)cc2)cc1): 521 nm

Structure (SMILES): C=CC(=O)Oc1ccc2cc(C=C)c(=O)oc2c1
- emission maximum (in CC#N): 430 nm

Structure (SMILES): C[SiH]1c2ccccc2-c2cc3c(cc21)-c1ccccc1[SiH]3C (stereo not given)
- emission maximum (in ClCCl): 389 nm

Structure (SMILES): Fc1ccc(C#Cc2c(C#Cc3ccc(F)cc3)c(C#Cc3ccc(F)cc3)c(C#Cc3ccc(F)cc3)c(C#Cc3ccc(F)cc3)c2C#Cc2ccc(F)cc2)cc1
- emission maximum (in ClCCl): 450 nm

Structure (SMILES): O=Cc1cc(N2CCCCC2)c2ccc3c(N4CCCCC4)cc(N4CCCCC4)c4ccc1c2c43
- emission maximum (in C1COCCO1): 557 nm
- emission maximum (in CC#N): 596 nm
- emission maximum (in CC(C)=O): 581 nm
- emission maximum (in CCCCCC): 520 nm
- emission maximum (in CCO): 635 nm
- emission maximum (in CCOC(C)=O): 562 nm
- emission maximum (in CO): 643 nm
- emission maximum (in CS(C)=O): 601 nm
- emission maximum (in Cc1ccccc1): 554 nm
- emission maximum (in ClCCl): 597 nm

Structure (SMILES): c1ccc2c(c1)-c1ccccc1C21c2ccccc2-c2ccncc21
- emission maximum (in CC1CCCO1): 348 nm

Structure (SMILES): CC1(C)c2ccccc2N(c2ccc3c(c2)C(c2ccccc2)(c2ccccc2)c2cc(N4c5ccccc5C(C)(C)c5ccccc54)ccc2S3(=O)=O)c2ccccc21
- emission maximum (in Cc1ccccc1): 448 nm

Structure (SMILES): CCCCN(CCCC)c1ccc2c(c1)C#CC#Cc1cc(C(F)(F)F)ccc1C#Cc1cc(c3cc1C#Cc1ccc(N(CCCC)CCCC)cc1C#CC#Cc1cc(C(F)(F)F)ccc1C#C3)C#C2
- emission maximum (in ClCCl): 558 nm
- emission maximum (in c1ccccc1): 522 nm

Structure (SMILES): CC(C)(C)c1ccc(C2=c3sc(-c4ccc(C(C)(C)C)cc4)cc3=[N+]3C2=Nc2c(-c4ccc(C(C)(C)C)cc4)c4sc(-c5ccc(C(C)(C)C)cc5)cc4n2[B-]3(F)F)cc1
- emission maximum (in ClC(Cl)Cl): 793 nm

Structure (SMILES): N#Cc1cccc(N)c1
- emission maximum (in C1CCCCC1): 343 nm
- emission maximum (in CC#N): 369.45 nm
- emission maximum (in CCCCCC): 339.87 nm
- emission maximum (in CCO): 384 nm
- emission maximum (in O): 392 nm
- emission maximum (in OCC(F)(F)F): 380 nm

Structure (SMILES): C1=C(c2ccc(-c3cccs3)s2)CCC1
- emission maximum (in C1CCOC1): 413 nm
- emission maximum (in CC#N): 412 nm
- emission maximum (in CCCCCC): 410 nm
- emission maximum (in CCO): 408 nm
- emission maximum (in OCCOCCO): 416 nm
- emission maximum (in c1ccncc1): 418 nm

Structure (SMILES): C(=C\c1ccccn1)/c1ccc(N(c2ccc(/C=C/c3ccccn3)cc2)c2ccc(-c3nc4ccccc4nc3-c3ccc(N(c4ccc(/C=C/c5ccccn5)cc4)c4ccc(/C=C/c5ccccn5)cc4)cc3)cc2)cc1
- emission maximum (in C1CCOC1): 548 nm
- emission maximum (in Cc1ccccc1): 533 nm

Structure (SMILES): C/C=C/c1ccc(OC)cc1
- emission maximum (in CC#N): 330 nm
- emission maximum (in CCCCCC): 328 nm

Structure (SMILES): COc1ccc(-c2c3cc4cc(C)sc4cc3c(-c3ccc(OC)cc3)c3cc4cc(C)sc4cc23)cc1
- emission maximum (in ClCCl): 514 nm

Structure (SMILES): COC(=O)c1cc(=O)n(C)c2cc(-c3ccc(N4CCN(C)CC4)cc3)sc12
- emission maximum (in CC#N): 587 nm
- emission maximum (in ClCCl): 550 nm
